# *1 amine or outer side, *2 acyl side, *3 side chain or, on linkers, in order; H or OH if unused. Where a SMILES comes first, the peptide text is derived from it. Bridges are numbered along the chain shown (N, C = ends). [ ]: non-standard residue; d: D form. The star is where a group is joined. hTyr(3S-OH,4S-OH,3'-OSO3H) = N[C@H](C(=O)O)[C@H](O)[C@@H](O)c1ccc(O)c(OS(=O)(=O)O)c1; pTerphenylCO(4''-OnC5H11) = CCCCCOc1ccc(-c2ccc(-c3ccc(C(=O)*)cc3)cc2)cc1; Orn(4R-OH,5R-OH) = O=C([C@H](C[C@@H](O)[C@@H](O)N[*:3])N[*:1])[*:2]; hTyr(3S-OH,4S-OH) = N[C@H](C(=O)O)[C@H](O)[C@@H](O)c1ccc(O)cc1; Pro(3S-OH,4S-Me) = C[C@H]1CN[C@H](C(=O)O)[C@H]1O; X1 = CCCCCOc1ccc(-c2cc(-c3ccc(C(=O)*)cc3)no2)cc1; Gln(3R-OH) = NC(=O)C[C@@H](O)[C@H](N)C(=O)O; Hyp = O=C(O)[C@@H]1C[C@@H](O)CN1
# Columns and labels:
# Aspergillus terreus = experiment: Ratio of MIC for Aspergillus flavus to MIC for Aspergillus terreus in presence of 50% human serum; assay type: functional
# Candida albicans [1] = experiment: Ratio of MIC for Candida albicans to MIC for Candida albicans in presence of 50% human serum; assay type: functional
# Nakaseomyces glabratus = experiment: Ratio of MIC for Candida glabrata to MIC for Candida glabrata in presence of 50% mouse serum; assay type: functional
# Pichia kudriavzevii = experiment: Ratio of MIC for Candida krusei to MIC for Candida krusei in presence of 50% human serum; assay type: functional
# Candida parapsilosis = experiment: Ratio of MIC for Candida parapsilosis to MIC for Candida parapsilosis in presence of 50% human serum; assay type: functional
# Candida tropicalis = experiment: Ratio of MIC for Candida tropicalis to MIC for Candida tropicalis in presence of 50% human serum; assay type: functional
# Glucan synthase [2] = molecular target: T1, Glucan synthase (Candida albicans, UniProt O13423); experiment: Inhibition of glucan synthase in Candida albicans 36082 assessed as incorporation of [3H]uridine diphosphoglucose
# T1 sequence (O13423 whole entry): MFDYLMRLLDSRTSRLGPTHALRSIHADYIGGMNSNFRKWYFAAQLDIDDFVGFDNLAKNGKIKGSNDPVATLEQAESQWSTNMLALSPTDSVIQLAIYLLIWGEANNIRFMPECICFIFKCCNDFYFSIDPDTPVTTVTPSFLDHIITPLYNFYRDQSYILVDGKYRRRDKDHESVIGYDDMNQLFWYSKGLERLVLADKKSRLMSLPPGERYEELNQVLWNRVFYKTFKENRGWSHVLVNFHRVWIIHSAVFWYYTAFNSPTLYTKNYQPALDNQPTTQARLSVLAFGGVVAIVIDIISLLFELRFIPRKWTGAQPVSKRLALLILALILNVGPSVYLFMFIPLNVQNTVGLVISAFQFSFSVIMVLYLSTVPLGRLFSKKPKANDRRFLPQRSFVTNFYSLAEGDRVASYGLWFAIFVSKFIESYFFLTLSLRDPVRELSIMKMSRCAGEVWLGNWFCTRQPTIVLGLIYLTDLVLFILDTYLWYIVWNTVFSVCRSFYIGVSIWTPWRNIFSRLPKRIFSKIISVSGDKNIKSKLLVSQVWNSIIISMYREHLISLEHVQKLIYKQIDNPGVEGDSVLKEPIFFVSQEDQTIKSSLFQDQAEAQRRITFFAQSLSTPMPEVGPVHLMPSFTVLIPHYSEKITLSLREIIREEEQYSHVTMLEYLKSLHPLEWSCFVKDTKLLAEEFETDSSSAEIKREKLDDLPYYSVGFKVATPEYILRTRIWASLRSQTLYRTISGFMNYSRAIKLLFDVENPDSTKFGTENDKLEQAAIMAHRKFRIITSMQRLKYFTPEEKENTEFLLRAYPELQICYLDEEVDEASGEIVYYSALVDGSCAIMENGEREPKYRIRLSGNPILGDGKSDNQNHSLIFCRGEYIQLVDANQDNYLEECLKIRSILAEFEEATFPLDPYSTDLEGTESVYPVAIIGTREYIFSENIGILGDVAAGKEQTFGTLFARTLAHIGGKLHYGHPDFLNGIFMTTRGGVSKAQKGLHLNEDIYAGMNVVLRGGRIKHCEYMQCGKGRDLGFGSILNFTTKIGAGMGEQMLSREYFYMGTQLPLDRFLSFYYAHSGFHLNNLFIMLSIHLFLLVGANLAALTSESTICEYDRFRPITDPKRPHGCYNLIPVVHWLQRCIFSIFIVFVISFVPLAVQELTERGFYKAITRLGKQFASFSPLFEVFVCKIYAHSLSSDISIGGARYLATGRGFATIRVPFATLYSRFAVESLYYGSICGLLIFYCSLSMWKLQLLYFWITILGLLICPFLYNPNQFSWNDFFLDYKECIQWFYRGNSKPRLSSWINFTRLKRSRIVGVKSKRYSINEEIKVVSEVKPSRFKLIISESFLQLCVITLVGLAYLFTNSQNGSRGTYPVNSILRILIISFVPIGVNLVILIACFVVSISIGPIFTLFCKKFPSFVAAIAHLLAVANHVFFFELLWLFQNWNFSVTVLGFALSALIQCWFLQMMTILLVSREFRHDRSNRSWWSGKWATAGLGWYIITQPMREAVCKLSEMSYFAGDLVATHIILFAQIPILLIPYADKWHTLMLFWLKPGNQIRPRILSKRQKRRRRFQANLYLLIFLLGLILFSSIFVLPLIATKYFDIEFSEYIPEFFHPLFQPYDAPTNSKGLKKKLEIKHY
# Glucan synthase [3] = molecular target: T1, Glucan synthase; experiment: Inhibition of glucan synthase in Candida albicans 36082 assessed as incorporation of [3H]uridine diphosphoglucose in presence of 10% serum
# Glucan synthase [4] = molecular target: T1, Glucan synthase; experiment: Inhibition of glucan synthase in Candida albicans 36082 assessed as incorporation of [3H]uridine diphosphoglucose in presence of 20% serum
# Glucan synthase [5] = molecular target: T1, Glucan synthase; experiment: Inhibition of glucan synthase in Candida albicans 36082 assessed as incorporation of [3H]uridine diphosphoglucose in presence of 50% serum
# Candida albicans [6] = experiment: Antifungal activity against Candida albicans 36082 infected BALB/c mouse assessed as fungal kidney burden after 14 days; assay type: functional; conditions: 336 h
# [7] = Inhibition of glucan synthase in Aspergillus fumigatus R21
# [8] = Inhibition of glucan synthase in Aspergillus fumigatus R21 in presence of 10% human serum
# [9] = Inhibition of glucan synthase in Aspergillus fumigatus R21 in presence of 20% human serum
# [10] = Inhibition of glucan synthase in Aspergillus fumigatus R21 in presence of 50% human serum
# [11] = Inhibition of glucan synthase in Aspergillus fumigatus MF5668
# [12] = Inhibition of glucan synthase in Aspergillus fumigatus MF5668 in presence of 10% human serum
# [13] = Inhibition of glucan synthase in Aspergillus fumigatus MF5668 in presence of 20% human serum
# [14] = Inhibition of glucan synthase in Aspergillus fumigatus MF5668 in presence of 50% human serum
# [15] = Inhibition of glucan synthase in Aspergillus fumigatus ATCC 13073
# [16] = Inhibition of glucan synthase in Aspergillus fumigatus ATCC 13073 in presence of 10% human serum
# [17] = Inhibition of glucan synthase in Aspergillus fumigatus ATCC 13073 in presence of 20% human serum
# Glucan synthase [18] = molecular target: T1, Glucan synthase; experiment: Inhibition of glucan synthase in Candida albicans ATCC 90028
# Glucan synthase [19] = molecular target: T1, Glucan synthase; experiment: Inhibition of glucan synthase in Candida albicans ATCC 90028 in presence of 10% human serum
# Glucan synthase [20] = molecular target: T1, Glucan synthase; experiment: Inhibition of glucan synthase in Candida albicans ATCC 90028 in presence of 20% human serum
# Glucan synthase [21] = molecular target: T1, Glucan synthase; experiment: Inhibition of glucan synthase in Candida albicans ATCC 90028 in presence of 50% human serum
# Glucan synthase [22] = molecular target: T1, Glucan synthase; experiment: Inhibition of glucan synthase in Candida albicans ATCC 36082
# Glucan synthase [23] = molecular target: T1, Glucan synthase; experiment: Inhibition of glucan synthase in Candida albicans ATCC 36082 in presence of 10% human serum
# Glucan synthase [24] = molecular target: T1, Glucan synthase; experiment: Inhibition of glucan synthase in Candida albicans ATCC 36082 in presence of 20% human serum
# Glucan synthase [25] = molecular target: T1, Glucan synthase; experiment: Inhibition of glucan synthase in Candida albicans SC5314
# Glucan synthase [26] = molecular target: T1, Glucan synthase; experiment: Inhibition of glucan synthase in Candida albicans SC5314 in presence of 10% human serum
# Glucan synthase [27] = molecular target: T1, Glucan synthase; experiment: Inhibition of glucan synthase in Candida albicans SC5314 in presence of 20% human serum
# Glucan synthase [28] = molecular target: T1, Glucan synthase; experiment: Inhibition of glucan synthase in Candida albicans SC5314 in presence of 50% human serum
# Aspergillus fumigatus = experiment: Ratio of MIC for Aspergillus fumigatus to MIC for Aspergillus fumigatus in presence of 50% human serum; assay type: functional
# Aspergillus flavus = experiment: Ratio of MIC for Aspergillus flavus to MIC for Aspergillus flavus in presence of 50% human serum; assay type: functional
# Aspergillus niger = experiment: Ratio of MIC for Aspergillus flavus to MIC for Aspergillus niger in presence of 50% human serum; assay type: functional
# [29] = Inhibition of glucan synthase in Aspergillus fumigatus ATCC 13073 in presence of 50% human serum
# Glucan synthase [30] = molecular target: T1, Glucan synthase; experiment: Inhibition of glucan synthase in Candida albicans ATCC 36082 in presence of 50% human serum
Compound,Ratio (Aspergillus terreus),Ratio (Candida albicans [1]),Ratio (Nakaseomyces glabratus),Ratio (Pichia kudriavzevii),Ratio (Candida parapsilosis),Ratio (Candida tropicalis),ED90 (Candida albicans [6]) [mg/kg],ED99 (Candida albicans [6]) [mg/kg],IC50 [7] [ng/mL],IC50 [8] [ng/mL],IC50 [9] [ng/mL],IC50 [10] [ng/mL],IC50 [11] [ng/mL],IC50 [12] [ng/mL],IC50 [13] [ng/mL],IC50 [14] [ng/mL],IC50 [15] [ng/mL],IC50 [16] [ng/mL],IC50 [17] [ng/mL],IC50 (Glucan synthase [18]) [nM],also measured
"CCCCCOc1ccc(-c2ccc(-c3ccc(C(=O)N[C@H]4C[C@@H](O)[C@@H](O)NC(=O)[C@@H]5[C@@H](O)[C@@H](C)CN5C(=O)[C@H]([C@@H](C)O)NC(=O)[C@H]([C@H](O)[C@@H](O)c5ccc(O)cc5)NC(=O)[C@@H]5C[C@@H](O)CN5C(=O)[C@H]([C@@H](C)O)NC4=O)cc3)cc2)cc1 [ANIDULAFUNGIN] ({pTerphenylCO(4''-OnC5H11)}-[Orn(4R-OH,5R-OH)]T[Hyp][hTyr(3S-OH,4S-OH)]T[Pro(3S-OH,4S-Me)]; lactam 1-C)",16,16,64,32,8,128,1.17,1.36,0.75,1.9,3.1,11.9,0.29,5.5,6.9,28.1,13.3,21.4,77.4,0.877,IC50 (Glucan synthase [2]): 0.88 nM; IC50 (Glucan synthase [3]): 4.14 nM; IC50 (Glucan synthase [4]): 16.4 nM; IC50 (Glucan synthase [5]): 25.8 nM; IC50 (Glucan synthase [19]): 4.14 nM; IC50 (Glucan synthase [20]): 16.3 nM; IC50 (Glucan synthase [21]): 21.7 nM; IC50 (Glucan synthase [22]): 16.2 nM; IC50 (Glucan synthase [23]): 21 nM; IC50 (Glucan synthase [24]): 62.7 nM; IC50 (Glucan synthase [25]): 15 nM; IC50 (Glucan synthase [26]): 13.4 nM; IC50 (Glucan synthase [27]): 65.5 nM; IC50 (Glucan synthase [28]): 78.1 nM; Ratio (Aspergillus fumigatus): 32; Ratio (Aspergillus flavus): 32; Ratio (Aspergillus niger): 32
CC[C@H](C)C[C@H](C)CCCCCCCCC(=O)N[C@H]1C[C@@H](O)[C@@H](NCCN)NC(=O)[C@@H]2[C@@H](O)CCN2C(=O)[C@H]([C@H](O)CCN)NC(=O)[C@H]([C@H](O)[C@@H](O)c2ccc(O)cc2)NC(=O)[C@@H]2C[C@@H](O)CN2C(=O)[C@H]([C@@H](C)O)NC1=O [CASPOFUNGIN],4,2,4,8,4,4,1.05,1.1,1.6,2.7,3.6,10.3,1.1,1,3.2,4.8,2,2.8,5.9,0.274,IC50 (Glucan synthase [2]): 0.302 nM; IC50 (Glucan synthase [3]): 1.21 nM; IC50 (Glucan synthase [4]): 1.9 nM; IC50 (Glucan synthase [5]): 5.69 nM; IC50 [29]: 9.4 ng/mL; IC50 (Glucan synthase [19]): 1.19 nM; IC50 (Glucan synthase [20]): 1.92 nM; IC50 (Glucan synthase [21]): 5.76 nM; IC50 (Glucan synthase [22]): 0.823 nM; IC50 (Glucan synthase [23]): 2.56 nM; IC50 (Glucan synthase [24]): 4.85 nM; IC50 (Glucan synthase [30]): 7.96 nM; IC50 (Glucan synthase [25]): 13.4 nM; IC50 (Glucan synthase [26]): 24.7 nM; IC50 (Glucan synthase [27]): 33.8 nM; IC50 (Glucan synthase [28]): 73.6 nM; Ratio (Aspergillus fumigatus): 11; Ratio (Aspergillus flavus): 8; Ratio (Aspergillus niger): 8
"CCCCCOc1ccc(-c2cc(-c3ccc(C(=O)N[C@H]4C[C@@H](O)[C@@H](O)NC(=O)[C@@H]5[C@@H](O)[C@@H](C)CN5C(=O)[C@H]([C@H](O)CC(N)=O)NC(=O)[C@H]([C@H](O)[C@@H](O)c5ccc(O)c(OS(=O)(=O)O)c5)NC(=O)[C@@H]5C[C@@H](O)CN5C(=O)[C@H]([C@@H](C)O)NC4=O)cc3)no2)cc1 [MICAFUNGIN] (X1-[Orn(4R-OH,5R-OH)]T[Hyp][hTyr(3S-OH,4S-OH,3'-OSO3H)][Gln(3R-OH)][Pro(3S-OH,4S-Me)]; lactam 1-C)",32,64,64,133,8,128,1.97,3.71,3.7,6.2,10.3,23.2,2.2,3.2,3.3,7.6,2,4.7,7.5,14.2,IC50 [29]: 9.8 ng/mL; IC50 (Glucan synthase [19]): 22.4 nM; IC50 (Glucan synthase [20]): 39.4 nM; IC50 (Glucan synthase [21]): 71 nM; IC50 (Glucan synthase [22]): 8.5 nM; IC50 (Glucan synthase [23]): 18.7 nM; IC50 (Glucan synthase [24]): 24.7 nM; IC50 (Glucan synthase [30]): 44.9 nM; IC50 (Glucan synthase [25]): 21.2 nM; IC50 (Glucan synthase [26]): 25.7 nM; IC50 (Glucan synthase [27]): 39.8 nM; IC50 (Glucan synthase [28]): 70.6 nM; Ratio (Aspergillus fumigatus): 64; Ratio (Aspergillus flavus): 33; Ratio (Aspergillus niger): 133

# — ChEMBL document CHEMBL1145468, “Serum differentially alters the antifungal properties of echinocandin drugs” (Antimicrob Agents Chemother, 2007)
